This note sets out measurements from patent EP4537835A1, “MIXTURE, COMPOSITIONS CONTAINING THAT MIXTURE AND USE THEREOF IN THE TREATMENT OF FEMAL INFERTILITY” (Nutra Futura S.r.l., priority 2023, dated 2025).

The test system of the experiment is CaCo-2 cells. The experiment is described as follows: Dose-response study of cell viability (MTT assay) on CaCo-2 cells. It is filed as cell-based, human. Particulars: p<0.05 compared to the other tested doses. How it is done: The human intestinal epithelial cell line CaCo-2, purchased from the American Type Culture Collection (ATCC), was used as an experimental model to predict the characteristics of intestinal absorption following oral administration. This cell line was cultured in Dulbecco's Modified Eagle Medium/Nutrient F-12 Ham (DMEM-F12, Merck Life Science, Rome, Italy) containing 10% FBS (Merck Life Science, Rome, Italy), 2 mM of L-glutamine and 1% penicillin-streptomycin (Merck Life Science, Rome, Italy) and kept in an incubator at 37 °C and 5% CO2. The experiments were conducted using cells with a passage number comprised between 26 and 32 to maintain the correct properties of permeability and paracellular transport. The cells were seeded in various ways, including 1 × 10^4 cells in 96-well plates, in order to study cell viability and ROS production, synchronising the cells for 8 hours with DMEM without phenol red and supplemented with 0.5% FBS, 2 mM L-glutamine and 1% penicillin-streptomycin at 37 °C; 2 × 10^4 cells in Transwell® 6.5 mm plates (Corning® Costar®, Merck Life Science, Rome, Italy) with a polycarbonate membrane insert with 0.4 µm pores (Corning® Costar®, Merck Life Science, Rome, Italy) in a 24-well plate in order to perform the absorption analyses.
The analysis of cell viability was carried out with a classic technique based on the MTT in vitro toxicology assay kit (Merck Life Science, Rome, Italy), following the manufacturer's instructions. In fact, at the end of the treatment, the cells were incubated with 1% MTT dye for 2 hours in an incubator at 37 °C, 5% CO2 and 95% humidity; the purple formazan crystals were then dissolved in an equal volume of MTT solubilisation solution. Absorbance was analysed with a spectrophotometer (Infinite 200 Pro MPlex, Tecan, Männedorf, Switzerland) at 570 nm with correction at 690 nm, and the results were expressed versus the control ([…]), which represented the untreated cells. The results represent the percentage of viable cells versus the control, which makes it possible to understand whether the stimulation is safe or not.
With the aim of evaluating what the best concentration of each selected substance might be, and to prevent any cytotoxic effect, the viability of the CaCo-2 cells was analysed by means of the MTT assay.
• L. crispatus (10 mg/ml; 20 mg/ml; 30 mg/ml; 40 mg/ml; 50 mg/ml) • NAC (0.3 mM; 0.6 mM; 1 mM) • lycopene (0.1 µM; 0.2 µM; 0.5 µM) • vitamin D3 (10 nM; 100 nM) • folic acid (10 µM; 50 µM; 125 µM; 500 µM)
Therefore, these were maintained for all the subsequent experiments.
`CC(C)=CCC/C(C)=C/C=C/C(C)=C/C=C/C(C)=C/C=C/C=C(C)/C=C/C=C(C)/C=C/C=C(\C)CCC=C(C)C` [Lycopene, (6E,8E,10E,12E,14E,16E,18E,20E,22E,24E,26E)-2,6,10,14,19,23,27,31-Octamethyl-dotriaconta-2,6,8,10,12,14,16,18,20,22,24,26,30-tridecane]: the “most effective concentration (cell viability)” value (shortened to “most effective concentration”) came to 0.2 µM.

Regarding `C=C1CC[C@H](O)C/C1=C/C=C1\CCC[C@]2(C)[C@@H]([C@H](C)CCCC(C)C)CC[C@@H]12` [Vitamin D, cholecalciferol], the “most effective concentration” value was 0.01 µM.

For `CC(=O)N[C@@H](CS)C(=O)O` [NAC, N-acetyl-L-cysteine], the “most effective concentration” value came to 600 µM.

On to `Nc1nc(=O)c2nc(CNc3ccc(C(=O)N[C@@H](CCC(=O)O)C(=O)O)cc3)cnc2[nH]1` [Folic acid, (S)-2-(4-((2-amino-4-hydroxypteridin-6-yl)-methylamino)benzamide)pentanedioic acid], for which the “most effective concentration” value stood at 50 µM.
